Where a SMILES comes first, the peptide text is derived from it. [ ]: non-standard residue; d: D form. β3hL = CC(C)C[C@H](N)CC(=O)O; Nva = CCC[C@H](N)C(=O)O
How the values were obtained:
[1] = test system: Jurkat; test: cells; format: functional; settings: Homo sapiens, 72 h
Description: Growth inhibition of human Jurkat cells after 72 hrs by XTT assay

[2] = in vitro; settings: human, HEK293 cells
Description: Growth inhibition of human HEK293 cells after 72 hrs by XTT assay

[3] = test system: MCF7; test: cells; format: functional; settings: Homo sapiens, MCF7, 72 h
Description: Growth inhibition of human MCF7 cells after 72 hrs by XTT assay

[4] = test system: HeLa; test: cells; format: functional; settings: Homo sapiens, 72 h
Description: Growth inhibition of human HeLa cells after 72 hrs by XTT assay

[5] = test system: HL-60; test: cells; format: functional; settings: Homo sapiens, HL-60, 72 h
Description: Growth inhibition of human HL60 cells after 72 hrs by XTT assay

[6] = molecular target: T1, Histone deacetylase 1 (Homo sapiens, UniProt Q13547); test: Competitive inhibition of HDAC1 using Ac-Lys(Ac)-AMC as substrate by Lineweaver-Burk plot analysis
T1 sequence (Q13547 whole entry): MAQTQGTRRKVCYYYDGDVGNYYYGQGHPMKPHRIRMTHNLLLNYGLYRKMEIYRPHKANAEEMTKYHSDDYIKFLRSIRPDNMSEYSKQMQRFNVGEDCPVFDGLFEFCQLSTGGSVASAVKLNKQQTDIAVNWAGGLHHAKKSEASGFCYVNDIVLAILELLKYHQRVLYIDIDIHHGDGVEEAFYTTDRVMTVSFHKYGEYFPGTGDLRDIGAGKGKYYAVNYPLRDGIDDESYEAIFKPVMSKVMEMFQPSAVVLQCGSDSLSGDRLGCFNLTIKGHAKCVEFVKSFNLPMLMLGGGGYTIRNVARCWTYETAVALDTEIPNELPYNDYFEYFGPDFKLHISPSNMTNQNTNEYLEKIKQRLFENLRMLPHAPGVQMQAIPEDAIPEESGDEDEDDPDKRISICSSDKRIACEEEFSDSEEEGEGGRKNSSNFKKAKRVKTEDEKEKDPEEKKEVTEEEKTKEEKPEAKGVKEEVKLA

[7] = molecular target: T2, Histone deacetylase 2 (Homo sapiens, UniProt Q92769); test: Inhibition of recombinant HDAC2 using Ac-Lys(Ac)-AMC as substrate after 30 mins by fluorescence analysis
T2 sequence (Q92769 whole entry): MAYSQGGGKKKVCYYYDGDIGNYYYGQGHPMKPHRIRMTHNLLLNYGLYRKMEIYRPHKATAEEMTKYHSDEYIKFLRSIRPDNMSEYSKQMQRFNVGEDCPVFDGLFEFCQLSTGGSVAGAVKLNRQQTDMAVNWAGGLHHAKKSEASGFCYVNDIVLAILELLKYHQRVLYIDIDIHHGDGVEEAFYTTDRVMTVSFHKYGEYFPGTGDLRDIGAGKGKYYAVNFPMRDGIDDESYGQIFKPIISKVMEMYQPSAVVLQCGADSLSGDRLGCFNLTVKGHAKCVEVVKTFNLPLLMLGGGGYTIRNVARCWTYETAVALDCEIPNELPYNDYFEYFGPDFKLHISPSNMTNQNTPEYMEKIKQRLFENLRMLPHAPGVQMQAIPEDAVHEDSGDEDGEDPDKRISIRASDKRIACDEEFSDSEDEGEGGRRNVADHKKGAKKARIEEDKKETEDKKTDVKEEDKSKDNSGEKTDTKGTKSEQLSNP

[8] = molecular target: T2, Histone deacetylase 2; test: Ratio of IC50 for valproic acid to compound for recombinant HDAC2 using Ac-Lys(Ac)-AMC as substrate after 30 mins by fluorescence analysis
[9] = molecular target: T3, Histone deacetylase 3/Nuclear receptor corepressor 2 (HDAC3/NCoR2) (Homo sapiens) (UniProt O15379+Q9Y618); test: Ratio of IC50 for valproic acid to compound for recombinant HDAC3/NCoR2 using Ac-Lys(Ac)-AMC as substrate after 30 mins by fluorescence analysis; format: protein-complex assay
[10] = molecular target: T1, Histone deacetylase 1; test: Ratio of IC50 for valproic acid to compound for recombinant HDAC1 using Ac-Lys(Ac)-AMC as substrate after 30 mins by fluorescence analysis
[11] = Ratio of IC50 for valproic acid to compound for recombinant using Ac-Lys(Ac)-AMC as substrate after 30 mins by fluorescence analysis; settings: Homo sapiens
[12] = molecular target: T2, Histone deacetylase 2; test: Competitive inhibition of HDAC2 using Ac-Lys(Ac)-AMC as substrate by Lineweaver-Burk plot analysis
[13] = molecular target: Histone deacetylase (Homo sapiens) (UniProt Q13547+O15379+Q9UBN7+Q92769+Q9UQL6+Q8WUI4+Q9BY41+Q96DB2+P56524+Q9UKV0+Q969S8); test: Inhibition of HDAC in human Jurkat cells assessed as increase in acetylated histone H3 after 24 hrs by Western blot analysis; format: cell-based
[14] = molecular target: T4, Protein deacetylase HDAC6 (Homo sapiens, UniProt Q9UBN7); test: Inhibition of recombinant HDAC6 using Ac-Lys(Ac)-AMC as substrate after 30 mins by fluorescence analysis
T4 sequence (Q9UBN7 whole entry): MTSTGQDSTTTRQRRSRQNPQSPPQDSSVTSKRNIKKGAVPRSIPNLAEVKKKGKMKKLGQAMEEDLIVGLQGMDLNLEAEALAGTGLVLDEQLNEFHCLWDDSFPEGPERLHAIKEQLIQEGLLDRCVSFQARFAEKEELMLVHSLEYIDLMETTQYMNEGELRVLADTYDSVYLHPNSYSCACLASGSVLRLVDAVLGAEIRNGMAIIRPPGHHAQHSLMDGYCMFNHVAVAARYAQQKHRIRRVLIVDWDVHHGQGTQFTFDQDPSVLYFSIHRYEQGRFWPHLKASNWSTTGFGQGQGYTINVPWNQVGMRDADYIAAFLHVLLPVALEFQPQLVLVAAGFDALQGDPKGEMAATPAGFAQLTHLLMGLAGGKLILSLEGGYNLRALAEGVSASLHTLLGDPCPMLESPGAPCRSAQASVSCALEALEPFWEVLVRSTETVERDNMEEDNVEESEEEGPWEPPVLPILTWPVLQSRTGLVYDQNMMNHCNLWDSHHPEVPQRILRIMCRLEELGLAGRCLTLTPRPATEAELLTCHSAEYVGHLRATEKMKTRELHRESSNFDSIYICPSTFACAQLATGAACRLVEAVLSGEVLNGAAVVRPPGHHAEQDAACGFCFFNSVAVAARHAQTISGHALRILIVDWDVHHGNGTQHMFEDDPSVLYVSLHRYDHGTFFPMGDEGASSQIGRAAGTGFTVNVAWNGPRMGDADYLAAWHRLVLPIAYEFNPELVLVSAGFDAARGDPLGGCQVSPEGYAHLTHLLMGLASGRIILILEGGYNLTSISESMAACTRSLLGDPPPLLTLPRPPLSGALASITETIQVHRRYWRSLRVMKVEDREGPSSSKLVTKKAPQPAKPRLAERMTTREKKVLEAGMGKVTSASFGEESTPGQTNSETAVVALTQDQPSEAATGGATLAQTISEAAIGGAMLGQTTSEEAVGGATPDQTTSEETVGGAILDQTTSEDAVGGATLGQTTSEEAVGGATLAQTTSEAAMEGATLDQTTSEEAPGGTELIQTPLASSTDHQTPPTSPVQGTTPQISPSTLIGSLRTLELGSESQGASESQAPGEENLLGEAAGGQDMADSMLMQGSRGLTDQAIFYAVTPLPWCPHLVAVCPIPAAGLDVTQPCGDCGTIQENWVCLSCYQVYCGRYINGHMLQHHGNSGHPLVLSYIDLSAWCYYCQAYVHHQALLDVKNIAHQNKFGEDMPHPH

[15] = molecular target: T3, Histone deacetylase 3/Nuclear receptor corepressor 2 (HDAC3/NCoR2) (Homo sapiens); test: Inhibition of recombinant HDAC3/NCoR2 at 1 uM; format: protein-complex assay
[16] = molecular target: T1, Histone deacetylase 1; test: Inhibition of recombinant HDAC1 using Ac-Lys(Ac)-AMC as substrate after 30 mins by fluorescence analysis
[17] = molecular target: T5, Histone deacetylase 3/Nuclear receptor corepressor 2 (HDAC3/NCoR2) (Homo sapiens, UniProt O15379); test: Competitive inhibition of HDAC3/NCoR2 using Ac-Lys(Ac)-AMC as substrate by Lineweaver-Burk plot analysis; format: protein-complex assay
T5 sequence (O15379 whole entry): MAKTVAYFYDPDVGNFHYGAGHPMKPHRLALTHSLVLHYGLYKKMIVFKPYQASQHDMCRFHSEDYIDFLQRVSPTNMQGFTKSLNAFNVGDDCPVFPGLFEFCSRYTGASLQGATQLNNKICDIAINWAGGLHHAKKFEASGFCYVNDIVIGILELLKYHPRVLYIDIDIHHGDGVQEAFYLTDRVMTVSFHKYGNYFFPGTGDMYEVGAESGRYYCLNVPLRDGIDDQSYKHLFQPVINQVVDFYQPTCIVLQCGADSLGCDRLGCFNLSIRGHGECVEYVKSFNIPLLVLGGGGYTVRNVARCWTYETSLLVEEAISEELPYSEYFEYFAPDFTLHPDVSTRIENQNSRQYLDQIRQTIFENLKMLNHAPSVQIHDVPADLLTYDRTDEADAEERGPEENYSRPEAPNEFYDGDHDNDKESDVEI
T5 sequence (Q9Y618 whole entry, further chain): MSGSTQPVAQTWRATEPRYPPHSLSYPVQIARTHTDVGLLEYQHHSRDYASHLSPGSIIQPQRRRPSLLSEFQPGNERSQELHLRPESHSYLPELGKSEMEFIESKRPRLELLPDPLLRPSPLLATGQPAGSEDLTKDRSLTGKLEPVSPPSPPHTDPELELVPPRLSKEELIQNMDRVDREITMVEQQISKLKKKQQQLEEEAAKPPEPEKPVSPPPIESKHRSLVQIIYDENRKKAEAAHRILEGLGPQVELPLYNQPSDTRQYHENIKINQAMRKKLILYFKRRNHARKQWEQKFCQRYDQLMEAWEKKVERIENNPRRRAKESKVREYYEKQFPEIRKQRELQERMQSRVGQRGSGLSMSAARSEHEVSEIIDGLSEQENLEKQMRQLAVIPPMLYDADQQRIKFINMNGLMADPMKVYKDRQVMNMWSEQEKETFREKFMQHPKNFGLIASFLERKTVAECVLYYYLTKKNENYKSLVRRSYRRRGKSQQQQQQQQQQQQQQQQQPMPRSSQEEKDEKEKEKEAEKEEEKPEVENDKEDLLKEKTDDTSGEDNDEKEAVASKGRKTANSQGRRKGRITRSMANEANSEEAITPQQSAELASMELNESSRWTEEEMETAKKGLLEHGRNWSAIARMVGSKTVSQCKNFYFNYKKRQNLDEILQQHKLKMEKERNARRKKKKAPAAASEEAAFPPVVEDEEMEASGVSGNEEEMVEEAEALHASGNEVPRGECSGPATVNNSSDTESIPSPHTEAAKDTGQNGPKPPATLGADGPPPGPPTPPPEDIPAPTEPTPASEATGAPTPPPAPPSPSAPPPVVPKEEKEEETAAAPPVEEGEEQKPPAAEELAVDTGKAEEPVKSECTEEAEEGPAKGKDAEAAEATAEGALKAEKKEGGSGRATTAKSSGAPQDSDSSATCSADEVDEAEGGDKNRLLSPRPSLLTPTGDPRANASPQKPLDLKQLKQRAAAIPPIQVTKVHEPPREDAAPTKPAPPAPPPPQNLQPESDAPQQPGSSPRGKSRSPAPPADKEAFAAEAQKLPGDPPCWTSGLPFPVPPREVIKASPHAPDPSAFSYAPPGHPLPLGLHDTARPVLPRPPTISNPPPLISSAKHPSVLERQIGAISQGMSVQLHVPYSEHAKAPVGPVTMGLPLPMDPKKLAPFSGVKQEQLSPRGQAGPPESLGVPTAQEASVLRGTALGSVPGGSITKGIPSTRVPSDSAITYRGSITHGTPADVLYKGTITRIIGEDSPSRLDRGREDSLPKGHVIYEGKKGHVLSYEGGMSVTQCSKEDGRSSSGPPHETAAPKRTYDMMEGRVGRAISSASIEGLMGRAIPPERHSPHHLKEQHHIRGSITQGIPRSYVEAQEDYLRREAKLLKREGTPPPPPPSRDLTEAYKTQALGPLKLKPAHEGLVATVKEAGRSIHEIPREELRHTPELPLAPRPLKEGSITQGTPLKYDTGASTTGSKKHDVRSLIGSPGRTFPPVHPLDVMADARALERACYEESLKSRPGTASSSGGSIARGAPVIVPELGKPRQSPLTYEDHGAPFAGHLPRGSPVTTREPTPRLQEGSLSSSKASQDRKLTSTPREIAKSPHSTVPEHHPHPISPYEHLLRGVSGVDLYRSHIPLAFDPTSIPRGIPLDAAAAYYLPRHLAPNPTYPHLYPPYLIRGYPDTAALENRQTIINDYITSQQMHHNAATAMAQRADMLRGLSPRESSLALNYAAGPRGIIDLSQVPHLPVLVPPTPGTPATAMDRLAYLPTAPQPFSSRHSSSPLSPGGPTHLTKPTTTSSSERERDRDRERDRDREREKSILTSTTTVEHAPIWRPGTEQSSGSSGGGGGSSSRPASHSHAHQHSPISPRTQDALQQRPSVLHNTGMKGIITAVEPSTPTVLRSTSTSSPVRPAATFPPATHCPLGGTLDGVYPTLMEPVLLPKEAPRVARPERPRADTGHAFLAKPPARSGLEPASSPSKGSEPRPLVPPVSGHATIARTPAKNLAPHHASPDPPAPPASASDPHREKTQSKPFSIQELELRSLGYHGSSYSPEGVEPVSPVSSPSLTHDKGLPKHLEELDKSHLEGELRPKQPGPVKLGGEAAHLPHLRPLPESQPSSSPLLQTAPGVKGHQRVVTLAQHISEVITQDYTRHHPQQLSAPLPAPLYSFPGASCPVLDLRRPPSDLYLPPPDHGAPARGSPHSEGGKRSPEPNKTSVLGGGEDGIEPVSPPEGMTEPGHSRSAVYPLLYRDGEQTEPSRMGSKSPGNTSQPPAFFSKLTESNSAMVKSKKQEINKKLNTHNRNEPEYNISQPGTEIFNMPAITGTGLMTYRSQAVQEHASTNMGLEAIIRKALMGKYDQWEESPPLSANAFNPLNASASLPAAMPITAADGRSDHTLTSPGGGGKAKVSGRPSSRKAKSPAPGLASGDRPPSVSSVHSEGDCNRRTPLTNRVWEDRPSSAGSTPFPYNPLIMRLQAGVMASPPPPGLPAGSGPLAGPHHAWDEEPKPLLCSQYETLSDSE

[18] = molecular target: T5, Histone deacetylase 3/Nuclear receptor corepressor 2 (HDAC3/NCoR2); test: Inhibition of recombinant HDAC3/NCoR2 using Ac-Lys(Ac)-AMC as substrate after 30 mins by fluorescence analysis; format: protein-complex assay
[19] = molecular target: T6, Protein deacetylase HDAC6 (Homo sapiens) (UniProt Q9UBN7); test: Inhibition of recombinant HDAC6 using Ac-Lys(Ac)-AMC as substrate at 20 uM after 30 mins by fluorescence analysis
T6 sequence (whole entry): T4 sequence (Q9UBN7 whole entry)

[20] = Growth inhibition of human HEK293 cells at 100 uM after 72 hrs by XTT assay; format: cell-based; settings: read-out: GI

| Structure (SMILES) | GI50 [1] [µM] | GI50 at 72 h [2] [µM] | GI50 [3] [µM] | GI50 [4] [µM] | GI50 [5] [µM] | Ki [6] [µM] | IC50 [7] [µM] | Ratio IC50 [8] | Ratio IC50 [9] | Ratio IC50 [10] | Ratio IC50 [11] | Ki [12] [µM] | inhibition [13] | IC50 [14] [µM] | inhibition [15] [%] | IC50 [16] [µM] | Ki [17] [µM] | IC50 [18] [µM] | inhibition [19] [%] | inhibition at 72 h, 100 µM [20] [%] |
| --- | --- | --- | --- | --- | --- | --- | --- | --- | --- | --- | --- | --- | --- | --- | --- | --- | --- | --- | --- | --- |
| CCC(=O)CCCCC[C@@H]1NC(=O)[C@H]2CCCCN2C(=O)[C@H]([C@@H](C)CC)NC(=O)[C@H](Cc2cn(OC)c3ccccc23)NC1=O [APICIDIN] | 0.83 | 11 | 6.8 | 1.4 | 0.28 | – | – | – | – | – | – | – | – | – | – | – | – | – | – | – |
| CCC[C@@H]1NC(=O)[C@H](C)NC(=O)C[C@H](CC(C)C)NC(=O)[C@H](Cc2cn(CN(C)C)c3ccccc23)NC1=O | 8.1 | 100 | 47 | 62 | 2.8 | 0.049 | 1.4 | 40 | 200 | 40 | 40 | 0.033 | Dose-dependent effect | > 20 | 60 | 0.68 | 0.037 | 0.8 | 46 | – |
| CCC[C@@H]1NC(=O)[C@H](C)NC(=O)C[C@H](CC(C)C)NC(=O)[C@H](Cc2c[nH]c3ccccc23)NC1=O (cyclo(A[Nva]W[β3hL])) | 12 | > 100 | 40 | 81 | 8.2 | – | 1.5 | – | – | – | – | – | – | > 20 | – | 0.98 | – | 1.4 | 37 | 33 |

Source: ChEMBL document CHEMBL2062402, “Discovery of HDAC Inhibitors That Lack an Active Site Zn(2+)-Binding Functional Group” (ACS Med Chem Lett, 2012)
